The values that follow come from patent US6048894A, “Substituted amide derivatives” (Banyu Pharmaceutical Co., Ltd., priority 1996, dated 2000).

This test concerns the target T1, protein-farnesyl transferase (PFT) (Rattus norvegicus, UniProt Q02293+Q04631).
T1 construct: a soluble fraction of rat's brain was fractionated; from tissue; host or cells: rat brain, soluble fraction, 30-50% ammonium sulfate cut, Q-Sepharose chromatography
Kind of test: Inhibitory activities against protein-farnesyl transferase (PFT), IC50. Type of test: biochemical. Conditions: PFT from rat brain (Q-sepharose fraction); prenyl acceptor H-ras protein or biotin-added Lys-Thr-Ser-Cys-Val-Ile-Met (not stated which for Table 1); [3H]-FPP 0.6 μM; 37° C., 20 min; read-out: 50% inhibitory concentrations against PFT activities, IC50. The protocol:
PFT was separated in such a manner that a soluble fraction of rat's brain was fractionated by means of 30%-50% saturated ammonium sulfate, further dialyzed and then subjected to column chromatography by Q-sepharose™ (manufactured by Pharmacia) (Reiss et al., Cell, vol. 62, pp. 81-88 (1990)).
Measurement of PFT activities was conducted by using, as a prenyl acceptor, H-ras protein or a peptide corresponding to the C-terminal 7 amino acid residues of K-rasB protein which had biotin added to the N-terminal (biotin-added Lys-Thr-Ser-Cys-Val-Ile-Met) and, as a prenyl donor, [^3 H]-labeled farnesyl pyrophosphate (FPP) (Reiss et al., Methods: A companion to Methods in Enzymology, vol. 1, No. 3, pp. 241-245 (1990)).
The [^3 H]-labeled farnesyl pyrophosphate (22.5 Ci/mmol) was purchased from New England Nuclear Co. Non-labeled farnesyl pyrophosphate was chemically synthesized from ditrethylammonium phosphate, trans-trans-farnesol and trichloroacetonitrile and purified by a XAD-2-resin column and diethylaminoethylcellulose (Cornforth et al., Methods in Enzymology, vol. 15, pp. 385-390 (1969)). […]
The enzymatic reaction product containing H-ras protein as the prenyl acceptor, was analyzed by SDS-PAGE (sodium dodecyl sulfate/polyacrylamide gel electrophoresis). […]
The measurement of PFT activities using H-ras protein as the prenyl receptor, was also analyzed by a rapid separate method. […]

As to `CCOC(=O)C(CC(=O)O)=C(O)C(=O)N(Cc1ccc2ccccc2c1)[C@H](C)[C@@H](Cc1ccc(C(=O)Nc2ccccc2)o1)C(=O)OC(C)C` (racemic) [Example 2, 3-(ethoxycarbonyl)-4-hydroxy-4-[N-[(1RS,2RS)-2-(isopropoxycarbonyl)-1-methyl-3-{5-(phenylcarbamoyl)-2-furyl}propyl]-N-(2-naphthylmethyl)carbamoyl]-3-butenoic acid], the IC50 worked out at 3.1 nM.
As to `CCOC(=O)/C=C/[C@@H](Cc1ccc(C(=O)Nc2ccccc2)o1)[C@@H](C)N(Cc1ccc2ccccc2c1)C(=O)C(O)=C(CC(=O)O)C(=O)OCC` (relative stereo) [Example 4], the IC50 turned out to be 7.8 nM.
